Results reported in patent publication US20110112308A1 (NOVARTIS AG, priority 2006, published 2011).

Assays:
[1] = Stability of mixtures with excipients; assay type: physicochemical
Protocol: (§1) All samples were prepared/diluted to a concentration of 0.2 mg/mL in methanol prior to analysis by HPLC. A freshly prepared sample of each salt was used as the reference standard for external standard calibration analysis.

[2] = Equilibration in solvents and buffers: form conversion
[3] = Intrinsic dissolution rate, rotation disk method; assay type: physicochemical; details: for Intrinsic Dissolution Rate: 37° C., 200 r.p.m.
Method in brief: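 Pellets of drug substance dissolved by rotating disk at 200 r.p.m. into a 500 mL vessel at 37 °C. Dissolved drug monitored continuously by recirculating the medium through a UV cell.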

[4] = Solubility, 24-hour equilibration at room temperature; assay type: physicochemical; details: for Solubility: approx. at 25° C.
Method in brief: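 20-50 mg sample in 1 ml solvent, equilibrated 24 h at room temperature. Dissolved amount measured gravimetrically or by UV-VIS, and pH of the clear solution recorded; salts may dissociate to free form, affecting solubility and pH.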

[5] = Solid-state stability; assay type: physicochemical; details: for Bulk stability (XRPD): 1 week
Protocol: as §1

[6] = pH of saturated solution or 1% suspension in water; assay type: physicochemical; details: room temperature
Protocol: pH Value: The pH at room temperature of a saturated solution or 1% suspension of the drug substance in water was recorded.

[7] = Solution stability (HPLC); assay type: physicochemical
Protocol: as §1

[8] = pH of saturated solution or 1% suspension in water; assay type: physicochemical; details: In pH = 6.8 buffer
[9] = Mixture 1: 50% PVP + 50% Crospovidone, 50° C./75% r.h., 2 weeks
[10] = Mixture 2: 50% Starch 1500 + 5% MCC 102, 50° C./75% r.h., 2 weeks
[11] = Mixture 3: 5% PVP + 5% Crospovidone + 10% Starch 1500 + 80% MCC 102, 50° C./75% r.h., 2 weeks
[12] = Mixture 4: 99% Lactose + 1% BHT/BHA, 50° C./75% r.h., 2 weeks
[13] = Mixture 5: 99% Mannitol + 1% BHT/BHA, 50° C./75% r.h., 2 weeks
[14] = Mixture 6: 50% Mannitol + 47% HPCLH21 + 1% BHT/BHA + 2% Magnesium Stearate, 50° C./75% r.h., 2 weeks
[15] = Mixture 7: 50% Cetyl Alcohol + 49% HPCLH21 + 1% Magnesium Stearate, 50° C./75% r.h., 2 weeks
[16] = Mixture 8: 100% PEG 3350, 50° C./75% r.h., 2 weeks
[17] = Bulk stability, 2 weeks, 50° C.
[18] = Bulk stability, 2 weeks, 50° C./20% water
[19] = Bulk stability, 2 weeks, 50° C./75% r.h.
[20] = Light study, 1200 kLux (300-800 nm)
[21] = 2 mg/mL in methanol, 1 week at 50° C.
[22] = 2 mg/mL in water, 1 week at 50° C.
[23] = 2 mg/mL, 100 mM lactate buffer pH 3.5, 1 week at 50° C.
[24] = 2% in 0.5% HPMC 4000, 1 day at RT
[25] = 2% in 0.5% Klucel HF, 1 day at RT
[26] = 2% in 0.8% Tween 80, 1 day at RT
[27] = 5% solution, 1 day at RT (diluted 1:100 in pH 6.8 buffer)

## Cc1[nH]c2ccccc2c1CCNCc1ccc(/C=C/C(=O)NO)cc1.Cl [HCl, hydrochloride salt of N-hydroxy-3-[4-[[[2-(2-methyl-1H-indol-3-yl)ethyl]amino]methyl]phenyl]-2E-2-propenamide]
[1]; [9]
  % DP (total degradation products): 0.6 % area
  % DS (drug substance): 99.4 % area
[1]; [10]
  % DP (total degradation products): 0.5 % area
  % DS (drug substance): 99.5 % area
[1]; [11]
  % DP (total degradation products): 0.6 % area
  % DS (drug substance): 99.4 % area
[1]; [12]
  % DP (total degradation products): 0.5 % area
  % DS (drug substance): 99.5 % area
[1]; [13]
  % DP (total degradation products): 0.5 % area
  % DS (drug substance): 99.5 % area
[1]; [14]
  % DP (total degradation products): 0.5 % area
  % DS (drug substance): 99.5 % area
[1]; [15]
  % DP (total degradation products): 0.5 % area
  % DS (drug substance): 99.5 % area
[1]; [16]
  % DP (total degradation products): 0.5 % area
  % DS (drug substance): 99.5 % area
[1]; Standard, freshly prepared
  % DP (total degradation products): 0.3 % area
  % DS (drug substance): 99.7 % area
[1]; after 2 weeks at 50° C./75% r.h.
  stability with all excipient mixtures tested, in words: very good stability
[2]; ambient temperature
  polymorphs upon equilibration: No additional polymorphs are detected
[2]; phosphate buffer (pH=6.8)
  conversion upon equilibration: converts to the free base
[3]
  intrinsic dissolution (rate), in words: good
[3]; HCl 0.1N
  Intrinsic Dissolution Rate: 0.13 mg min^−1 cm^−2
[3]; Water, free base pellet disintegrated, not true intrinsic rate
  Intrinsic Dissolution Rate: 0.68 mg min^−1 cm^−2
[4]
  aqueous solubility: 2400 µg/mL
  solubility in methanol, in words: high
  solubility in other common / remaining organic solvents, in words: considerable
[4]; 0.1N HCl
  Solubility: 200 µg/mL
[4]; 2-Propanol
  Solubility: 800 µg/mL
[4]; Acetone
  Solubility: 4500 µg/mL
[4]; Ethanol
  Solubility: 2100 µg/mL
[4]; Ethyl acetate
  Solubility: 6500 µg/mL
[4]; Methanol
  Solubility: 16600 µg/mL
[4]; Propylene glycol
  Solubility: 13200 µg/mL
[4]; Water
  Solubility: 2400 µg/mL
[4]; estimated from mg/mL assuming solution density 1 g/mL
  approximate solubility in water as %: approximately 0.3%
[4]; pH = 6.8 buffer
  Solubility: 700 µg/mL
[5]; 80° C.
  Bulk stability (XRPD): no change
[5]; 80° C./75% r.h.
  Bulk stability (XRPD): no change
[5]; [17]
  % DP (total degradation products): 0.44 % area
  assay: [99.38]
[5]; [18]
  % DP (total degradation products): 0.56 % area
  assay: [100.6]
[5]; [19]
  % DP (total degradation products): 0.56 % area
  assay: [99.04]
[5]; [20]
  % DP (total degradation products): 2.58 % area
  CL (appearance): C (C = medium discoloration)
  assay: [98.15]
[6]
  pH of saturated solution: 5.65
[7]; 2 mg/mL in 100 mM lactate buffer, pH 3.5
  pH of initial mixture: 3.52
[7]; [21]
  % DP (total degradation products): 0.38 % area
  assay: [99.25]
[7]; 2 mg/mL in water
  pH of initial mixture: 5.93
[7]; [22]
  % DP (total degradation products): 0.89 % area
  CL (appearance): A↓*
  assay: [97.53]
[7]; [23]
  % DP (total degradation products): 1.30 % area
  CL (appearance): A↓*
[7]; 2 mg/mL, 100 mM lactate buffer pH 3.5, 1 week at 50° C., external standard
  assay: [96.61]
[7]; 2% in 0.5% CMC, 1 day at RT
  % DP (total degradation products): 0.46 % area
  CL (appearance): A↓↓
  assay: [85.28]
[7]; [24]
  % DP (total degradation products): 0.43 % area
  assay: [100.0]
[7]; [25]
  % DP (total degradation products): 0.43 % area
  assay: [100.6]
[7]; [26]
  % DP (total degradation products): 0.43 % area
  assay: [97.83]
[7]; [27]
  % DP (total degradation products): 1.40 % area
  CL (appearance): A↓
  assay: [98.91
[7]; both in solution and in the solid state
  stability characteristics, in words: very good stability
[7]; unstressed baseline of the stability study
  Unstressed (% Area): 99.63% Area
[8]
  pH of saturated solution: 5.67
